# Laboratory results taken from patent publication US20150023883A1, “Antiperspirant Spray Devices and Compositions” (The Procter & Gamble Company, priority 2013, published 2015).
# From the text: (§1) Solubility may be determined by measuring the amount of light transmittance (a light transmittance value) through a simple mixture of the non-volatile silicone fluid and liquid activation enhancer at the same weight/weight concentrations as in a final antiperspirant composition.
# as §1, with “Solubility of a liquid activation enhancer in a non-volatile silicone” for “Solubility”, “(light” for “(a light”
# The Spectronic Genesys 10 Vis utilizes a tungsten-halogen light source and has a spectral bandwidth of 5 nm, a wavelength range of 325 to 1100 nm, accuracy of ±1 nm and a repeatability of ±0.5 nm. Readouts include absorbance, transmittance and concentration. The spectrophotometer is set to 640 nm wavelength and the percent transmittance mode/readout. Polystyrene spectrometer cuvettes having a 1 cm optical light path and transmittance between ˜340 nm and ˜900 nm are used. One suitable example of a spectrometer cuvette is available from VWR International LLC under Catalog #97000-584 having a 2.5 to 4.5 ml capacity. The spectrophotometer is calibrated according to the manufacturer's instructions using a reference cuvette and composition comprised of just the non-volatile silicone fluid of interest. For example, if the test composition comprises 50 centistoke dimethicone and 15% w/w of isopropyl myristate, then the spectrometer is calibrated using a cuvette containing just 50 centistoke dimethicone. Sample cuvettes are filled sufficiently with a test composition of a non-volatile silicone fluid and liquid activation enhancer so that the light path of the spectrophotometer passes through the test composition in the cuvette. The sample cuvettes are shaken well just prior to taking a light transmittance reading.
light transmittance value,Compound,solubility in 50 centistoke dimethicone
about 100%,CCCCCCCCCCCCCCCCCC(=O)OCCCC [butyl stearate],–
about 100%,CCCCCCCCCCCCCC(C)C [isohexadecane],soluble
about 101%,CCCCCCCCCCCCCC(=O)OC(C)C [isopropyl myristate],–
about 101%,CCCCCCCCCCCCCCCC(=O)OC(C)C [isopropyl palmitate],–
–,CCCCCCCCCCC(CO)CCCCCCCC (centres unmarked) [octyldodecanol],soluble in the 50 centistoke dimethicone at some (lower) concentrations
–,PPG-14 butyl ether,insoluble
–,mineral oil,soluble in 50 centistoke dimethicone at some (lower) concentrations
